Where a name gives a salt, the structure may show the parent alone.
Biological target: T1, recombinant human CDK1/Cyclin B complex (Homo sapiens, UniProt P06493)
T1 construct: made in house; host or cells: High Five insect cells (baculovirus); Rb substrate made in E. coli M15
Assay: CDK1/Cyclin B kinase assay (FlashPlate or HTRF), Rb protein substrate
Assay type: biochemical
Conditions: Ki=IC50/(1+[S]/Km)
Protocol: To determine inhibition of CDK1 activity, either FlashPlate™ (NEN™-Life Science Products) assay or HTRF assay was performed. Both types of kinase assays were carried out using recombinant human CDK1/Cyclin B complex. GST-cyclinB (GST-cycB) and CDK1cDNA clones in baculovirus vectors were provided by Dr. W. Harper at the Baylor College of Medicine, Houston, Tex. Proteins were co-expressed in High Five™ insect cells and the complex was purified on glutathione Sepharose resin (Pharmacia, Piscataway, N.J.) as previously described (Harper, J. W. et al. Cell 1993, 75, 805-816). A 6×-Histidine tagged truncated form of retinoblastoma (Rb) protein (amino acid 386-928) was used as the substrate for the CDK1/Cyclin B assay (the expression plasmid was provided by Dr. Veronica Sullivan, Department of Molecular Virology, Roche Research Centre, Welwyn Garden City, United Kingdom). The Rb protein is a natural substrate for phosphorylation by CDK1 (see Herwig and Strauss Eur. J. Biochem. Vol. 246 (1997) pp. 581-601 and the references cited therein). The expression of the 62 Kd protein was under the control of an IPTG inducible promoter in an M15 E. coli strain. Cells were lysed by sonication and purification was carried out by binding lysates at pH 8.0 to a Ni-chelated agarose column pretreated with 1 mM imidazole. The resin was then washed several times with incrementally decreasing pH buffers to pH 6.0, and eluted with 500 mM imidazole. Eluted protein was dialyzed against 20 mM HEPES pH 7.5, 30% glycerol, 200 mM NaCl, and 1 mM DTT. Purified Rb fusion protein stocks were quantitated for protein concentration, aliquoted, and stored at −70° C.
For the FlashPlate kinase assay, 96-well FlashPlates were coated with Rb protein at 10 μg/ml, using 100 μl per well. Plates were incubated at 4° C. overnight or at room temperature for 3 hours on a shaker. To control for nonspecific phosphorylation, one row of wells was coated with 100 μl/well coating buffer (20 mM HEPES, 0.2 M NaCl). Plates were then washed twice with wash buffer (0.01% Tween 20 in phosphate-buffered saline). Compounds to be tested (“test compounds”) were added to the wells at 5× final concentration. Reactions were initiated by immediate addition of 40 μl reaction mix (25 mM HEPES, 20 mM MgCl2, 0.002% Tween 20, 2 mM DTT, 1 μM ATP, 4 nM 33P-ATP) and a sufficient amount of enzyme to give counts that were at least 10-fold above background. Plates were incubated at room temperature on a shaker for 30 minutes. Plates were washed four times with the wash buffer, sealed, and counted on the TopCount scintillation counter (Packard Instrument Co., Downers Grove, Ill.]. The percent inhibition of Rb phosphorylation, which is a measure of the inhibition of CDK activity, was determined according to the following formula:
[formula] where “test compound” refers to the average counts per minute of the test duplicates, “nonspecific” refers to the average counts per minute when no CDK1/Cyclin B, etc., was added, and “total” refers to the average counts per minute when no compound was added. The IC50 value is the concentration of test compound that reduces by 50% the protein-kinase induced incorporation of the radiolabel under the test conditions described. The value of the inhibitor constant Ki is calculated by the following: Ki=IC50/(1+[S]/Km), where [S] is the ATP concentration and Km is Michaelis constant.
The Homofeneous Time Resolved Fluorescence (HTRF) kinase assay was carried out in 96-well polypropylene plates (BD Biosciences, Bedford, Mass.). Test compounds were first dissolved in DMSO, and then diluted in kinase assay buffer 1 (25 mM HEPES, pH7.0, 8 mM MgCl2, 1.5 mM DTT, and 162 μM ATP) with DMSO concentration at 15%. The CDK1/Cyclin B enzyme was diluted in kinase assay buffer 2 (25 mM HEPES, pH 7.0, 8 mM MgCl2, 0.003% Tween 20, 0.045% BSA, 1.5 mM DTT, and 0.675 μM Rb protein). […]

T1 sequence (P06493 whole entry): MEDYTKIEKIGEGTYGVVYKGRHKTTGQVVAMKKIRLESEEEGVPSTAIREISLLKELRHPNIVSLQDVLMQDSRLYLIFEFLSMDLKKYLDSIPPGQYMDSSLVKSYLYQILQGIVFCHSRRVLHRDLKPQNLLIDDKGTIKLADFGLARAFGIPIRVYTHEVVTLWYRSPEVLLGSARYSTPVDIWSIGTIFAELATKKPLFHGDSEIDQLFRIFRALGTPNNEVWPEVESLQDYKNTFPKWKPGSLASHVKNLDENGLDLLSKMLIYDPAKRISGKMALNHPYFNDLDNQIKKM
T1 sequence (P14635 whole entry partner): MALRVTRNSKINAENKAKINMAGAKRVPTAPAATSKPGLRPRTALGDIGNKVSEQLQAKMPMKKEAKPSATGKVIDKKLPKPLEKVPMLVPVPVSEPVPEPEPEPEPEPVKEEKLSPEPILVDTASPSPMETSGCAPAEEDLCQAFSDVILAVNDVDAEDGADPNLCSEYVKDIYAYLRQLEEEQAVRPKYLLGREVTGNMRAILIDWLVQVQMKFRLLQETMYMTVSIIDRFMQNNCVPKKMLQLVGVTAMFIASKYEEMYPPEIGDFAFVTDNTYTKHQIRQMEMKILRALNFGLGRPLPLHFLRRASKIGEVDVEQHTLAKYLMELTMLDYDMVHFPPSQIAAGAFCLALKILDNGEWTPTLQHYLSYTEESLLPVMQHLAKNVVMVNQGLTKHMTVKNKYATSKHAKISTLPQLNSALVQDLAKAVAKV

SMILES	Ki [nM]
CCCCOc1c(C#N)cnc2ccc(/C=C3\SC(N)=NC3=O)cc12 [Example 80, 6-[2-Amino-4-oxo-4H-thiazol-(5Z)-ylidenemethyl]-4-butoxy-quinoline-3-carbonitrile]	1
CCOc1c(C#N)cnc2ccc(/C=C3\SC(NCCn4ccnc4)=NC3=O)cc12 [Example 20, 4-Ethoxy-6-[2-(2-imidazol-1-yl-ethylamino)-4-oxo-4H-thiazol-(5Z)-ylidenemethyl]-quinoline-3-carbonitrile]	228
CC(C)Sc1c(C#N)cnc2ccc(/C=C3\SC(N)=NC3=O)cc12 [Example 40, 6-[2-amino-4-oxo-4H-thiazol-(5Z)-ylidenemethyl]-4-isopropylsulfanyl-quinoline-3-carbonitrile]	16
CCOc1c(C#N)cnc2ccc(/C=C3\SC(N)=NC3=O)cc12 [Example 15, 6-[2-Amino-4-oxo-4H-thiazol-(5Z)-ylidenemethyl]-4-ethoxy-quinoline-3-carbonitrile]	8
COc1c(C(=O)N(C)C)cnc2ccc(/C=C3\SC(N[C@@H]4C[C@H]4c4ccccc4)=NC3=O)cc12 [Example 10, 4-Methoxy-6-[4-oxo-2-((1R,2S)-2-phenyl-cyclopropylamino)-4H-thiazol-(5Z)-ylidenemethyl]-quinoline-3-carboxylic acid dimethylamide]	958
CC(C)(C)COc1c(C#N)cnc2ccc(/C=C3\SC(NC4CC4)=NC3=O)cc12 [Example 70, 6-[2-Cyclopropylamino-4-oxo-4H-thiazol-(5Z)-ylidenemethyl]-4-(2,2-dimethyl-propoxy)-quinoline-3-carbonitrile]	6
COC(=O)c1cnc2ccc(/C=C3\SC(N[C@@H](CO)c4ccccc4)=NC3=O)cc2c1OC [Example 5, 6-[2-((R)-2-Hydroxy-1-phenyl-ethylamino)-4-oxo-4H-thiazol-(5Z)-ylidenemethyl]-4-methoxy-quinoline-3-carboxylic acid methyl ester]	179
CCOc1c(C#N)cnc2ccc(/C=C3\SC(NCCOCCOC)=NC3=O)cc12 [Example 25, 6-[2-[2-(2-methoxy-ethoxy)-ethylamino]-4-oxo-4H-thiazol-(5Z)-ylidenemethyl]-4-ethoxy-quinoline-3-carbonitrile]	1000
N#Cc1cnc2ccc(/C=C3\SC(N)=NC3=O)cc2c1OC1CCNCC1 [Example 30, 6-[2-Amino-4-oxo-4H-thiazol-(5Z)-ylidenemethyl]-4-(piperidin-4-yloxy)-quinoline-3-carbonitrile hydrochloride]	184
N#Cc1cnc2ccc(/C=C3\SC(N)=NC3=O)cc2c1SCCCO [Example 50, 6-[2-Amino-4-oxo-4H-thiazol-(5Z)-ylidenemethyl]-4-(3-hydroxy-propylsulfanyl)-quinoline-3-carbonitrile]	65
CC(C)Oc1c(C#N)cnc2ccc(/C=C3\SC(NN)=NC3=O)cc12 [Example 60, 6-[2-Hydrazino-4-oxo-4H-thiazol-(5Z)-ylidenemethyl]-4-isopropoxy-quinoline-3-carbonitrile hydrochloride salt]	28

— patent US7250515B2, “Thiazolinone 3,4-disubstituted quinolines” (Hoffman-La Roche Inc., priority 2004, dated 2007)
